Test results from patent US20090247520A1, “INHIBITORS OF ANTIGEN RECEPTOR-INDUCED NF-kappa B ACTIVATION” (The Burnham Institute for Medical Research, priority 2008, published 2009).
Read-outs that look alike come from different tables or passages of the source.

Key:
[1] = test system: PMA/Ionomycin-induced NF-κB reporter gene activity; experiment: NF-κB luciferase reporter gene assay, PMA/Ionomycin-stimulated HEK293-NF-κB-luc cells; type: cell-based
Text: The strategy for compound library screening entailed using phorbol ester (phorbol myristic acetate [PMA]) and Ca^2+-ionophore Ionomycin to achieve PKC activation, mimicking the initiating events in the antigen receptor pathway. For convenience, we used HEK293 epithelial cells, in which it has previously been shown by siRNA-mediated gene silencing and transfection of dominant-negative mutants that PMA/Ionomycin-induced NF-κB activation is dependent on CARMA1, Bcl-10, and MALT. HEK293 cells were stably transfected with a luciferase reporter gene driven by a NF-κB responsive promoter, and the responsiveness of this integrated promoter to various NF-κB inducing stimuli was confirmed, including PMA/Ionomycin and TNF. Using these cells, 96- and 384-well plate-based high throughput screening (HTS) assays were established, with good assay performance characteristics (Z′>0.5) (PubChem AID=1384). We initially screened 53,280 chemical compounds at an average concentration of 5 μM, of which 519 primary hits were obtained (based on cut-off of 50% inhibition). Of these, 248 confirmed upon repeat testing (FIG. 1).
Cell engineering. HEK293 cells were co-transfected with pUC13-4xNFκB-Luc and p-TK-puromycin-resistance plasmids. Stable clones were selected by culture in Dulbecco's Modified Eagle's Media (InVitrogen) supplemented with 10% heat-inactivated fetal bovine serum (FBS) (Hyclone), 1% v/v penicillin-streptomycin (InVitrogen) containing 1 μg/mL puromycin. Individual clones were tested for responsiveness to PMA/Ionomycin- and to TNF-induced NF-κB reporter gene activity, and a clone was selected for HTS.
HTS. NF-κB-luciferase expressing HEK293 cells were seeded at […] per well in white 96 well plates (Greiner Bio-One) in 90 μl of DMEM and incubated overnight. 10 μl of compound-containing solution was added to each well (final 1.5 μg/mL in 1% DMSO) using a liquid handler (Biomek™ FX; Beckman Coulter). After 2 h incubation, cells were stimulated using 11 μl of a PMA (final 100 ng/mL; Calbiochem) and ionomycin (final 50 ng/mL; Calbiochem) in DMEM. Cell plates were incubated for 16 h before media was removed and 40 μl of 0.5× passive lysis buffer (Promega Corp.) was added to cell plates. Plates were allowed to stand at room temperature for at least 15 minutes before adding 40 μl of 0.125× luciferin substrate (Promega Corp.) to each well. Plates were analyzed within 30 seconds with a Criterion Analyst™ using the luminescence method (0.1 second read/well).
Several compounds synthesized by the methods described herein were tested for their efficacy at inhibiting Nf-κB activation.

[2] = test system: 353 protein kinases; experiment: KINOMEscan kinome screen, panel of 353 protein kinases; type: binding, human; settings: 10 μM, of 353 protein kinases surveyed
Text: CID-2858522 is not a potent protein kinase inhibitor. Protein kinases play critical roles in NF-κB activation. PKCs are proximal kinases in the NF-κB pathways activated by PMA/Ionomycin and by T- and B-cell antigen receptors, while the IKKs are distal kinases operating in the terminal segments of these and other NF-κB activation pathways. We therefore tested whether CID-2858522 inhibits members of these kinase families by in vitro kinase assays. For these experiments, we tested PKC-beta and PKC-theta (the PKC family members implicated in TCR/BCR signaling), and IKK-beta (a component of the IKK complex) (FIG. 6). […] In addition to assessing these three kinases by conventional in vitro kinase assays, a kinome screen was performed using a high throughput screening method, KINOMEscan™, which is an active-site dependent competition binding assay in which human kinases of interest are fused to a proprietary tag (Ambit). The amount of kinase bound to an immobilized, active-site directed ligand is measured in the presence and absence of the test compound. […] Thus, CID-2858522 inhibits none of the protein kinases previously implicated in regulating NF-κB.
In Vitro Kinase Assays. PKC-beta, PKC-theta and IKK-beta in vitro kinase assays were performed using the HTScan Kinase Assay Kit (Cell Signaling, Danvers, Mass.) according to manufacturer's protocols. […]

[3] = test system: PDB-induced IL-8 production; experiment: PDBu-induced IL-8 production by HEK293 cells; type: cell-based; settings: Homo sapiens
Method: (A) Structures of two hit compounds, CID-2858522 (left) and CID-2998237 (right) are shown; (B, C) 293-NF-κB-luc cells were pretreated for 2 hrs with various concentration of either CID-2858522 (B) or CID-29982387 (C) and then stimulated with TNF (10 ng/mL) or PMA/lonomycin (10 ng/mL; 5 ng/mL) for 16 h. Luciferase activity was measured and data were expressed as a percentage relative to control treatment with DMSO only (mean±SD; n=3). (D) 293-NF-κB-luc cells were pretreated for 2 h with various concentrations of CID-2858522 or CID-2998237, then stimulated with PMA/lonomycin for 16 h. IL-8 release into the medium was measured, expressing data as a percentage relative to control cultures treated with DMSO (mean±SD; n=3). (E) 293-NF-κB-luc cells were pretreated with CID-2858522 and then stimulated with PDBu for 16 h, IL-8 production and NF-κB luciferase activity were measured as above. (F) 293-NF-κB-luc cells were pretreated for 2 h with various concentrations of CID-2858522 or a PKC inhibitor (Bisindolylmaleimide I) at 1 μM followed by PMA/Ionomycin (10 ng/mL) stimulation for 2 h, then p65-DNA-binding activity was measured in nuclear extracts (10 μg protein), expressing data as fold-increase relative to unstimulated cells (mean±SD; n=3).
Lymphokine measurements. […]

Compound: Cc1cc2nc(NCCCO)n(CC(=O)c3cc(C(C)(C)C)c(O)c(C(C)(C)C)c3)c2cc1C [Compound 1, 2-(2-(3-Hydroxypropylamino)-5,6-dimethyl-1H-benzo[d]imidazol-1-yl)-1-(3,5-di-tert-butyl-4-hydroxyphenyl)ethanone]
- IC50 ([1]; Homo sapiens, HEK293 cell line, PMA/Ionomycin, read-out: IC50, suppression of NF-κB reporter gene activity): ~70 nM
- IC50 ([1]; Homo sapiens, PMA/Ionomycin / PKC activators, HEK293, read-out: IC50, NF-κB reporter gene assay (cellular potency)): < 100 nM
- concentration at which maximum inhibition of NF-κB reporter is achieved ([1]; PMA/Ionomycin, HEK293): 0.25 to 0.5 µM
- IC50 ([1]; Table II, read-out: IC50, Inhibition of antigen receptor-mediated Nf-κB): 70 nM
- number of protein kinases suppressed by >50% [2]: 3
- IC50 ([3]; read-out: IC50, PDB-induced IL-8 production): 100 nM
- IC50 ([3]; read-out: IC50, PDBu-induced IL-8 secretion (cellular potency)): < 100 nM
